Activity calls are given as the source filed them. Cut-off read from the data, not from the text of the source, for most assays here: actives have a measured EC50 and inactives only a lower limit.
Tests used:
[1] = C. albicans growth with fluconazole, confirmation, fluorescence, retest (AID 2467); format: functional, cell-based
[2] = target: T1, Serine/threonine-protein phosphatase (Candida dubliniensis (strain CD36 / CBS 7987 / NCPF 3949 / NRRLY-17841) (Yeast), UniProt B9W6M3); experiment: calcineurin pathway inhibitors in yeast reporter, dose response, S. cerevisiae, CDRE-lacZ, luminescence, secondary (AID 2388); format: functional, cell-based;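 note: yeast reporter cells carrying a calcineurin-responsive lacZ construct stimulated with calcium chloride; luminescent beta-galactosidase reporter signal in whole cells rather than isolated phosphatase activity; potency for inhibition where a drop in reporter signal means calcineurin blockade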
T1 sequence (B9W6M3 whole entry): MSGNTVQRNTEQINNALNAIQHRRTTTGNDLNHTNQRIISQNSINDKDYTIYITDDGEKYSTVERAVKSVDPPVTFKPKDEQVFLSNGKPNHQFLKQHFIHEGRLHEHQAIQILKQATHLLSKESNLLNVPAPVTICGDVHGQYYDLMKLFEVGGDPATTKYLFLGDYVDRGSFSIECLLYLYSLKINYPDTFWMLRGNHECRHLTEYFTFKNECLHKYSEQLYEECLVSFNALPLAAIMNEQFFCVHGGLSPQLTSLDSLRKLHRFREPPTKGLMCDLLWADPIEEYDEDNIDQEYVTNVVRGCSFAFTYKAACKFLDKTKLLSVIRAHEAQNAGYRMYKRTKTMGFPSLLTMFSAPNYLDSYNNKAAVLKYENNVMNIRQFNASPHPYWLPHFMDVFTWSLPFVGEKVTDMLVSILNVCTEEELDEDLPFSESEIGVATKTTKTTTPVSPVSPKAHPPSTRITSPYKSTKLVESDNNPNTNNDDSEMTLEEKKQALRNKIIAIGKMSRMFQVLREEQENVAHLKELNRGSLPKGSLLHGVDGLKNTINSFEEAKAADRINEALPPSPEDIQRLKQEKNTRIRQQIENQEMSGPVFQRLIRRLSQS

[3] = target: ATP-dependent molecular chaperone HSP82 (Candida albicans (strain WO-1) (Yeast), UniProt C4YTQ8); experiment: loss of DOC-induced GRE-beta-galactosidase reporter signal, dose response, Hsp90 inhibitor project, S. cerevisiae, luminescence (AID 2400); format: functional, cell-based;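 note: beta-galactosidase luminescence from glucocorticoid response element reporter as proxy for Hsp90 function; inhibitor potency where signal loss means Hsp90 inhibition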
Sequence of ATP-dependent molecular chaperone HSP82 (C4YTQ8 whole entry): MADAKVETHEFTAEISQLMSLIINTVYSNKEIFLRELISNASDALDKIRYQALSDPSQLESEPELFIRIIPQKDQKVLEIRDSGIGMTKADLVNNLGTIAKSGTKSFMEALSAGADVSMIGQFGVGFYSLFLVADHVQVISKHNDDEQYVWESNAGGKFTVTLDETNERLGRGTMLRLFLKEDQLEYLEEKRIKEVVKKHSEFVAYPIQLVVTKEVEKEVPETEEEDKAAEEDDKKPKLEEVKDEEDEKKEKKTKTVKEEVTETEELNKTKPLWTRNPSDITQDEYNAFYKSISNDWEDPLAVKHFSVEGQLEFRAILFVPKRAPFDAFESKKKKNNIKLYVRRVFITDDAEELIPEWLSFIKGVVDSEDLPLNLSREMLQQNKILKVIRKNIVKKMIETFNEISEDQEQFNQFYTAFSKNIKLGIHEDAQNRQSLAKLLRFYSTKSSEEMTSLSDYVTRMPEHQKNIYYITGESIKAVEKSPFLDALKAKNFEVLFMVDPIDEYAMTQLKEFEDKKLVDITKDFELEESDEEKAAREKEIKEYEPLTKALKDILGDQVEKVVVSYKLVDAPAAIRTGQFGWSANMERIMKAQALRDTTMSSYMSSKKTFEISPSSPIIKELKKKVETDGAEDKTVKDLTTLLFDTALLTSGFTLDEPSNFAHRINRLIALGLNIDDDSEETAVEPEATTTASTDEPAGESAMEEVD

[4] = NIH-3T3 fibroblast cytotoxicity, dose response, cytotoxicity control, cell-based, fluorescence, Alamar Blue, secondary assay (AID 2327); format: functional;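 note: NIH-3T3 mouse fibroblasts cultured with fluconazole at 8 µg/mL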
[5] = Shn3 3'UTR reporter inhibitors, dose response, cell-based, Clone20 osteoblasts, firefly luciferase, cherry-picked (AID 624132); format: functional;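 note: firefly luciferase luminescence from reporter carrying the Shn3 3'UTR in osteoblasts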
[6] = cytotoxicity toward NIH3T3 fibroblasts, dose response, counter-screen, cell-based, ATP luminescence, mouse fibroblasts (AID 2010); format: functional;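 note: cells exposed to compound for about 90 hours before reading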
[7] = tested on: Streptococcus sp. 'group A'; experiment: growth inhibition of control SK(-) GAS strain, dose response, counter-screen for streptokinase expression inhibitor project, luminescence, kanamycin, BacTiterGlo, confirmation (AID 1900); format: functional, organism-based
Beta-galactosidase = Beta-galactosidase (Escherichia coli, UniProt Q8VNN2); experiment: PubChem AID 485352; format: functional
Sequence of Beta-galactosidase (Q8VNN2 whole entry): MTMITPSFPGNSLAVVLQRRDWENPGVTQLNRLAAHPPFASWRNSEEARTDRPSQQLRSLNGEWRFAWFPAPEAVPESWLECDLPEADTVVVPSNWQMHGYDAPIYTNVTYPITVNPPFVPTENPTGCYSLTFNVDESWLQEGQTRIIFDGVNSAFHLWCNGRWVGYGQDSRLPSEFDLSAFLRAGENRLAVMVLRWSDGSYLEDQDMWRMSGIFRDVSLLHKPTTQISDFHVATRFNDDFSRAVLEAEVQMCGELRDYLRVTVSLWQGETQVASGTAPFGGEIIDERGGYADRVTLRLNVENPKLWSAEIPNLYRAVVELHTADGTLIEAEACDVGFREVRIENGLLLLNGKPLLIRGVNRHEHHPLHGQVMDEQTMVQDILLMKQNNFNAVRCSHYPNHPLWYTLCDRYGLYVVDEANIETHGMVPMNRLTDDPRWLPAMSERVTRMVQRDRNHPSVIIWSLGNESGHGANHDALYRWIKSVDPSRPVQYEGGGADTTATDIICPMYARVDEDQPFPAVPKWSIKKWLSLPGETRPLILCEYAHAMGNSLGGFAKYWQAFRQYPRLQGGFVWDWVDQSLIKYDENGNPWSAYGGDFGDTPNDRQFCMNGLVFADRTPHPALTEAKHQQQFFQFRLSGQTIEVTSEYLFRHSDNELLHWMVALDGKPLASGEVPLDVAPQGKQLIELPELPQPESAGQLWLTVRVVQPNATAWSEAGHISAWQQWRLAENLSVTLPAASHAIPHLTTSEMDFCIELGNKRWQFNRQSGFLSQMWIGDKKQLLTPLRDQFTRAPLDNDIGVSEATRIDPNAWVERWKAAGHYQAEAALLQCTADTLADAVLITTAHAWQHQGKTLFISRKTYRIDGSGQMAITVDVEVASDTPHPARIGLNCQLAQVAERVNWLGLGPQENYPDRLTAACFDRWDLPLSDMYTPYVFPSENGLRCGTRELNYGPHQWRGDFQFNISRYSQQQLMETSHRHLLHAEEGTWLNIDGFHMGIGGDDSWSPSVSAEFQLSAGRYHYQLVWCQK

Streptokinase A = target: T2, Streptokinase A (Streptococcus pyogenes serotype M1, UniProt P10520); experiment: S. pyogenes streptokinase expression inhibitors, potency, dose response, plasminogen activation absorbance, OD405 (AID 1914); format: functional, Streptococcus pyogenes M1 GAS;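 note: secreted streptokinase activity via plasminogen activation per viability signal from cell pellet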
T2 sequence (P10520 whole entry): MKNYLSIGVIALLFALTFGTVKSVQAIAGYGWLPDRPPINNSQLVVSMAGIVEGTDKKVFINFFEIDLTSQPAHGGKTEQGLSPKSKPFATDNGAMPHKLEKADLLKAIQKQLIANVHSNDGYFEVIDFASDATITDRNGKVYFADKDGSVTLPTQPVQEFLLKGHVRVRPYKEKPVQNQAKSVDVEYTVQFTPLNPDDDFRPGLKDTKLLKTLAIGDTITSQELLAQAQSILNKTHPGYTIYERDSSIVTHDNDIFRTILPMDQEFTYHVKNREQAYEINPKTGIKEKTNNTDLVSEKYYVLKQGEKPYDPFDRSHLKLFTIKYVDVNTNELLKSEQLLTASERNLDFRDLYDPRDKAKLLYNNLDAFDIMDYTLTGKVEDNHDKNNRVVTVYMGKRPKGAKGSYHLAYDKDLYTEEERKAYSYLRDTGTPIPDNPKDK

H9c2 = experiment: cells; format: functional, cell-based; conditions: Rattus norvegicus, H9c2, Myocardium;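 note: confirmatory concentration-response retest of ultra-high-throughput screening hits for modulation of myocardial damage; cell death induced by hydrogen peroxide oxidative stress; compound pretreatment for 60 min then peroxide exposure for 2 h; potency is for protecting the cells against peroxide damage rather than for killing them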
[8] = target: T3, Type-1 angiotensin II receptor (Homo sapiens, UniProt P30556); experiment: AT1 receptor antagonists, dose response, selectivity assay for APJ receptor antagonist project, cell-based, uHTS hits (AID 463214); format: functional;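 note: antagonist potency against angiotensin II stimulated AT1 response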
T3 sequence (P30556 whole entry): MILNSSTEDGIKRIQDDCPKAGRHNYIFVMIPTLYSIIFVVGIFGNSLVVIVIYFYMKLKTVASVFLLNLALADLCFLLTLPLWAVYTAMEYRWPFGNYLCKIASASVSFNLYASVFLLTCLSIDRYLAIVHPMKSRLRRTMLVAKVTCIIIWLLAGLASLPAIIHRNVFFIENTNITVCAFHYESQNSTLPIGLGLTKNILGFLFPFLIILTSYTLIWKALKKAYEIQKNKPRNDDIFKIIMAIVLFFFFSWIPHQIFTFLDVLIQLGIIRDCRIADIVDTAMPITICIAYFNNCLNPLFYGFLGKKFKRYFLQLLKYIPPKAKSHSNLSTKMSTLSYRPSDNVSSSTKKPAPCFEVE

[9] = HepG2 cell cytotoxicity, dose response, cytotoxicity control for Shn3 inhibitor project, CellTiter-Glo, cherry-picked (AID 624134); format: functional, cell-based
Streptococcus = experiment: Group A Streptococcus viability loss, dose response, counter-screen for streptokinase expression inhibitor project, luminescence, BacTiterGlo (AID 1915); format: functional, organism-based;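 note: potency for reduction of bacterial viability or growth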
[10] = inhibitors of intracellular T. cruzi replication, confirmation, NIH3T3 host cells, beta-gal luminescence (AID 2044); format: functional, cell-based;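 note: intracellular parasites grown in NIH/3T3 mouse fibroblasts as host cells; luminescent beta-galactosidase reporter signal from transgenic T. cruzi replicating inside host cells; inhibitors lower the luminescence signal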
[11] = target: T4, Heat shock factor protein 1 (Mus musculus, UniProt P38532); experiment: HSF1 potentiators in luciferase reporter cells, confirmation, cell-based, NIH3T3, luminescence, dose retest (AID 435004); format: functional;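 note: stress induced by proteasome inhibitor MG132 added 30 min after compound; luciferase reporter driven by HSF1 response element in NIH3T3 cells; actives raise luminescence as potentiators of the MG132 stress response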
T4 sequence (P38532 whole entry): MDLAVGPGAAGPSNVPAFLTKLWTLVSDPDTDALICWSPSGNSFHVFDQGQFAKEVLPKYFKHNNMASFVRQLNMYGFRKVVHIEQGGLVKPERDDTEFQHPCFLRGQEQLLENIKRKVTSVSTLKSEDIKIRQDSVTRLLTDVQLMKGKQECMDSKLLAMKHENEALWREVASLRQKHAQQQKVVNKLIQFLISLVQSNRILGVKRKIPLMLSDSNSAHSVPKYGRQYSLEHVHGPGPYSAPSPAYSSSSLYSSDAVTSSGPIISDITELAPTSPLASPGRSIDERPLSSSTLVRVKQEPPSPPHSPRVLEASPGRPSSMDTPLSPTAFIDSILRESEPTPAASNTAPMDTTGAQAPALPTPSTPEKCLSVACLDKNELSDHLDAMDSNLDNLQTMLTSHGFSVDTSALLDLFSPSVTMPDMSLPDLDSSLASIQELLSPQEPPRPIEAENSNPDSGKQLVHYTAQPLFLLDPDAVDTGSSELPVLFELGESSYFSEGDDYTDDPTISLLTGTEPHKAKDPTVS

Hexokinase-1 = target: T5, Hexokinase-1 (Homo sapiens, UniProt P19367); experiment: SAR analysis of small molecule inhibitors of hexokinase domain containing I (HKDC1) in the hexokinase 1 selectivity assay. [Related pubchem assays (depositor defined):AID493160, AID493190]; format: functional
T5 sequence (P19367 whole entry): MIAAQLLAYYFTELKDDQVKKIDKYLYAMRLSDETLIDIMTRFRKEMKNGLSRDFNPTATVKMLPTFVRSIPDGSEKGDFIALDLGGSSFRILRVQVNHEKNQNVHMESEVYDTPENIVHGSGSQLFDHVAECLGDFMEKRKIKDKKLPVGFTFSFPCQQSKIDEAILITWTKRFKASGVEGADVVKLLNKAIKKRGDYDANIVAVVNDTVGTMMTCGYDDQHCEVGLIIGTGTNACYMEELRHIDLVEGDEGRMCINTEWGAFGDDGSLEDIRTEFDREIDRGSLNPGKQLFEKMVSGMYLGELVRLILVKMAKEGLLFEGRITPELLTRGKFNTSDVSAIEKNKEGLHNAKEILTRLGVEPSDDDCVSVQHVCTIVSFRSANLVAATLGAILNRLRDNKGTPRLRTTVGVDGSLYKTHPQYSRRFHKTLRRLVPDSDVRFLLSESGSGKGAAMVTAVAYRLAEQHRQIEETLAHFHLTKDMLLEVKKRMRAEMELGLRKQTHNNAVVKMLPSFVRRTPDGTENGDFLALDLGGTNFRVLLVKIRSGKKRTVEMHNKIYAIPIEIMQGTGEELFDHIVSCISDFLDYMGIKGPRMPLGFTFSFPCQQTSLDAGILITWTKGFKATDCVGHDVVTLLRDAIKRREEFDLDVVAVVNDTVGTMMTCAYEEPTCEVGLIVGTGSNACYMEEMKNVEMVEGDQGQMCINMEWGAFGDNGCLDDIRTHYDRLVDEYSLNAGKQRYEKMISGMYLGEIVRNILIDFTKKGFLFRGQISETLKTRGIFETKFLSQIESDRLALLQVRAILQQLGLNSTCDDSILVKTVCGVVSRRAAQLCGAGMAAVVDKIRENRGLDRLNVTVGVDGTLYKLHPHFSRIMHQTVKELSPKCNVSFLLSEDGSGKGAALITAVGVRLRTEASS

Hexokinase HKDC1 = target: T6, Hexokinase HKDC1 (Homo sapiens, UniProt Q2TB90); experiment: SAR analysis of small molecule inhibitors of hexokinase domain containing I (HKDC1). [Related pubchem assays (depositor defined):AID493160, AID493190]; format: functional
T6 sequence (Q2TB90 whole entry): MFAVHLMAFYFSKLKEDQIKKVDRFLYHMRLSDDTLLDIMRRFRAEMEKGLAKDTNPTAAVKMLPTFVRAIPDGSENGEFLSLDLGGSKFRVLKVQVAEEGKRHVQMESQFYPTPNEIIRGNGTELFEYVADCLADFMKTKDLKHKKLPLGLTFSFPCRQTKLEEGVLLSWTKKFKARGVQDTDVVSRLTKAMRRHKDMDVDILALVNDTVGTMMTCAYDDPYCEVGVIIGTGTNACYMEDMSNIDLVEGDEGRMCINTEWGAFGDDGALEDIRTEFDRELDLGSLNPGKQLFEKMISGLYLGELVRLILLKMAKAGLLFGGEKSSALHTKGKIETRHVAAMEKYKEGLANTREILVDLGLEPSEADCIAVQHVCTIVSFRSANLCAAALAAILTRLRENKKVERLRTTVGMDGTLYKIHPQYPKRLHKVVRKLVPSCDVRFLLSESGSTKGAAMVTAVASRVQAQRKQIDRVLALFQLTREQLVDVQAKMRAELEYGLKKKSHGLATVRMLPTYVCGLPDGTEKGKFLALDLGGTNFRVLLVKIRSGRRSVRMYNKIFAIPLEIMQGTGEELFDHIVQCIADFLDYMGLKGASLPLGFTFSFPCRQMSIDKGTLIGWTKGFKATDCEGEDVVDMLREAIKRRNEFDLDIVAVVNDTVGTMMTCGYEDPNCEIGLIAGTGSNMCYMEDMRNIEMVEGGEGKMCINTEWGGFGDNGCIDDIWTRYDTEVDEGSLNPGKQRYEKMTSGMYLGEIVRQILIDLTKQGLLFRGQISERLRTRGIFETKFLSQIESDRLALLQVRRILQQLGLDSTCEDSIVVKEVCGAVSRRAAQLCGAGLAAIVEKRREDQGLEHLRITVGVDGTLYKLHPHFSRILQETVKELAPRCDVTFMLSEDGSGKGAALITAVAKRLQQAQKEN

Row | SMILES | EC50 [1] | EC50 [2] | EC50 [3] | EC50 [4] | IC50 (Hexokinase-1) | IC50 (Hexokinase HKDC1) | further results
1 | O=C(Cc1ccc(Cl)cc1)NNC(=S)NC(=O)c1cccs1 | 1.43 µM (active) | > 180 µM (inactive) | 16.6 µM (active) | > 160 µM (inactive) | – | – | –
2 | O=C(CCS(=O)(=O)c1ccc(F)cc1)Nc1nc(-c2ccncc2)cs1 | 1.39 µM (active) | > 180 µM (inactive) | 16.5 µM (active) | 18.3 µM (inconclusive) | – | – | –
3 | COc1ccc(NS(=O)(=O)c2ccc3ccccc3c2)c2ncccc12 | > 38 µM (not active) | – | – | 60.9 µM (active) | – | – | AC50 [5]: 4.82 µM (active); EC50 [6]: 5.55 µM (active); EC50 [7]: 1.03 µM (active); EC50 (Beta-galactosidase): > 40 µM (inactive); EC50 (Streptokinase A): > 150 µM (not active); IC50 (H9c2): 11.5 µM (active); IC50 [8]: 23.1 µM (not active); AC50 [9]: 69.5 µM (active); EC50 (Streptococcus): 4.63 µM (active); EC50 [10]: 0.688 µM (active); EC50 [11]: 7.48 µM (active)
4 | Cc1cc2nnc(SCC(=O)Nc3cccc(S(=O)(=O)N4CCCC4)c3)n2c2ccccc12 | – | – | – | – | > 80 µM (inactive) | > 80 µM (inactive) | –
5 | O=c1c2ccccc2nc(/C=C/c2ccccn2)n1Cc1ccccc1 | – | – | – | – | > 80 µM (inactive) | > 80 µM (inactive) | –
6 | O=c1c2ccccc2nc(/C=C/c2ccccc2)n1Cc1ccccc1 | – | – | – | – | > 80 µM (inactive) | > 80 µM (inactive) | –

From ChEMBL document CHEMBL1201862, “PubChem BioAssay data set” (2004)
